The term IC50 denotes the point on the concentration scale where inhibition reaches its midpoint. A higher IC50 goes with a need for much substance. Broadly, the Kd is the free concentration of one partner at which half of the binding sites on the other are occupied at equilibrium, for simple one-to-one binding.

These results are taken from BindingDB's records for PubMed 39288705 (Comenius University Bratislava).

Assay [1] addresses T1, Replicase polyprotein 1ab (Severe acute respiratory syndrome coronavirus 2, UniProt P0DTD1). Briefly: Inhibition of SARS-CoV-2 3CL protease extracted from Escherichia coli BL21 (DE3) Rosetta cells using DabcylKNSTLQSGLRKE-Edan as substrate preincubated for 60 mins followed by substrate addition and measured after 20 mins by FRET assay.
The target of assay [2] is T1, Replicase polyprotein 1ab. The assay is described as follows: Binding affinity to SARS-CoV-2 3CL protease extracted from Escherichia coli BL21 (DE3) Rosetta cells assessed as dissociation constant.
The target of assay [3] is T1, Replicase polyprotein 1ab. Briefly: Binding affinity to SARS-CoV-2 3CL protease assessed as dissociation constant by SPR analysis.
Assay [4] has as its target T1, Replicase polyprotein 1ab. The assay is described as follows: Inhibition of SARS-CoV-2 3CL protease by FRET assay.

Consider `CCC(C(=O)Nc1cc(NC2CCOCC2)ccc1C)n1cc(Cl)cc2nc(SCc3ccc(F)cc3)nc1-2` (stereo not given), for which the IC50 in assay [1] turned out to be 520 nM. Further, in assay [2], the Kd was 1000 nM. Regarding `CCC(C(=O)Nc1cc(NC2CCOC2)ccc1C)n1cc(Cl)cc2nc(SCc3ccc(F)cc3)nc1-2` (stereo not given), in assay [2], the dissociation constant Kd turned out to be 1110 nM. Turning to `CCC(C(=O)Nc1cc(NC2COC2)ccc1C)n1cccc2nc(SCc3ccc(F)cc3)nc1-2` (stereo not given), in assay [3], the dissociation constant Kd is 1400 nM. In the case of `CCC(C(=O)Nc1cc(NC2CCNC2)ccc1C)n1cccc2nc(SCc3ccc(F)cc3)nc1-2` (stereo not given), the IC50 in assay [4] worked out at 140 nM.
